In ChEMBL document CHEMBL3124838, “Discovery of 6-aryl-azabenzimidazoles that inhibit the TBK1/IKK-ε kinases” (Bioorg Med Chem Lett, 2014):

What was measured:
[1] = molecular target: T1, Tyrosine-protein kinase receptor TYRO3 (Homo sapiens) (UniProt Q06418); assay: Inhibition of human RSE assessed as residual activity at 1 uM relative to control
T1 sequence (whole entry): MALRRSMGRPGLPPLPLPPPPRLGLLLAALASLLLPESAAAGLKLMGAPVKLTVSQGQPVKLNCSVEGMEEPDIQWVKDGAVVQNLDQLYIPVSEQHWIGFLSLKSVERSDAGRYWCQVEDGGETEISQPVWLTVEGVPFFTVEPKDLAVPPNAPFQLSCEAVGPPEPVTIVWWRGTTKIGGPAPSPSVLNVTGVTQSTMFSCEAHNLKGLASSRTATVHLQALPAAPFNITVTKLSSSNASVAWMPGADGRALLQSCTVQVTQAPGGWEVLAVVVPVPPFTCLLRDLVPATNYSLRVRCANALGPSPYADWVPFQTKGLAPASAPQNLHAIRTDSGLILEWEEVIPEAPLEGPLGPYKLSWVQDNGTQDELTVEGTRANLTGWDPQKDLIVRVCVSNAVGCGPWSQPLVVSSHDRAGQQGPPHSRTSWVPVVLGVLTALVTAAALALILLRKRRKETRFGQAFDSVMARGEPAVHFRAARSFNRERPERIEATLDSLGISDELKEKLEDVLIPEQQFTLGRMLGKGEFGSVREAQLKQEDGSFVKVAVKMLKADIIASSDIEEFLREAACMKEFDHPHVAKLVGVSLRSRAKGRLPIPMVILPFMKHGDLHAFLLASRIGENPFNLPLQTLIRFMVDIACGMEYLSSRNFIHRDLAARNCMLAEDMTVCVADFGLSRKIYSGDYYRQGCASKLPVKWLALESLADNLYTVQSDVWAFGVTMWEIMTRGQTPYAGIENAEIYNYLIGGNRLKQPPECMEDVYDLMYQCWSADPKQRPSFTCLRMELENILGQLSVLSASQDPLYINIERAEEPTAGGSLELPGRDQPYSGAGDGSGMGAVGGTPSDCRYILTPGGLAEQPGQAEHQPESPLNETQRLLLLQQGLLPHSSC

[2] = molecular target: Receptor tyrosine-protein kinase erbB-4 (Homo sapiens) (UniProt Q15303); assay: Inhibition of human ERBB4 assessed as residual activity at 1 uM relative to control
Receptor tyrosine-protein kinase erbB-4 (Homo sapiens), sequence (Q15303 whole entry): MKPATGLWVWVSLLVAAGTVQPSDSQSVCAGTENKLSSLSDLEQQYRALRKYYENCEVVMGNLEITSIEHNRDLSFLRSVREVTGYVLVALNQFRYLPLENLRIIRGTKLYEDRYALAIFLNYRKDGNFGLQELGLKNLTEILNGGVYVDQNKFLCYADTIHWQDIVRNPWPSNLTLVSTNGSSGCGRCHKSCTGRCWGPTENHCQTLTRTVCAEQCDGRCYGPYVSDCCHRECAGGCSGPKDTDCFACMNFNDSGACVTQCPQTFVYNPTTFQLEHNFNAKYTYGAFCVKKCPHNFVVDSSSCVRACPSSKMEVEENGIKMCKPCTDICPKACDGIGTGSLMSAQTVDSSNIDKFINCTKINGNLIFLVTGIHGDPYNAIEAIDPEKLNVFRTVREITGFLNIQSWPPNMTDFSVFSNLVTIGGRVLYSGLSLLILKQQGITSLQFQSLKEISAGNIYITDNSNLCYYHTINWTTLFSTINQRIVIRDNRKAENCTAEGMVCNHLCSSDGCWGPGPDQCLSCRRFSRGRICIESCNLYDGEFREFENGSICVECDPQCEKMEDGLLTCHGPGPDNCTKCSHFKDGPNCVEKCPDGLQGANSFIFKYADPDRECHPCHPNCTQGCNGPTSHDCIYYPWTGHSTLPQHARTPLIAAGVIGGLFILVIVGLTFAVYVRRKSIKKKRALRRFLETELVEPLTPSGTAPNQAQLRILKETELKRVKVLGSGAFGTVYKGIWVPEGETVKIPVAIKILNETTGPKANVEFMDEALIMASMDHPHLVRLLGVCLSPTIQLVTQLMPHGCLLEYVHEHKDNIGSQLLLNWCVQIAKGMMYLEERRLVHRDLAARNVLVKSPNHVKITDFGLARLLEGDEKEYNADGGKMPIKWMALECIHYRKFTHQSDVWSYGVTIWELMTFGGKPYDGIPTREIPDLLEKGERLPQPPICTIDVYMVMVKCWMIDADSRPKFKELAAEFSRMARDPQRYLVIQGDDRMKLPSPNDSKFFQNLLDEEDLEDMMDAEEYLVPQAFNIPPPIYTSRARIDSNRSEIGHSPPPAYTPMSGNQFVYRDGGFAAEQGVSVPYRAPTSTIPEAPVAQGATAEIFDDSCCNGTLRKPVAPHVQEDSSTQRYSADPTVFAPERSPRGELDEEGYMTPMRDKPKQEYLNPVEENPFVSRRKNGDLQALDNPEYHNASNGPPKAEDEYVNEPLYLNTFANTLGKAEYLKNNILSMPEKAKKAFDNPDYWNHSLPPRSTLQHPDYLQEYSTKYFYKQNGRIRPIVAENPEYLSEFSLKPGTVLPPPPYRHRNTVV

[3] = molecular target: Epidermal growth factor receptor (Homo sapiens) (UniProt P00533); assay: Inhibition of human EGFR assessed as residual activity at 1 uM relative to control
Epidermal growth factor receptor (Homo sapiens), sequence (P00533 whole entry): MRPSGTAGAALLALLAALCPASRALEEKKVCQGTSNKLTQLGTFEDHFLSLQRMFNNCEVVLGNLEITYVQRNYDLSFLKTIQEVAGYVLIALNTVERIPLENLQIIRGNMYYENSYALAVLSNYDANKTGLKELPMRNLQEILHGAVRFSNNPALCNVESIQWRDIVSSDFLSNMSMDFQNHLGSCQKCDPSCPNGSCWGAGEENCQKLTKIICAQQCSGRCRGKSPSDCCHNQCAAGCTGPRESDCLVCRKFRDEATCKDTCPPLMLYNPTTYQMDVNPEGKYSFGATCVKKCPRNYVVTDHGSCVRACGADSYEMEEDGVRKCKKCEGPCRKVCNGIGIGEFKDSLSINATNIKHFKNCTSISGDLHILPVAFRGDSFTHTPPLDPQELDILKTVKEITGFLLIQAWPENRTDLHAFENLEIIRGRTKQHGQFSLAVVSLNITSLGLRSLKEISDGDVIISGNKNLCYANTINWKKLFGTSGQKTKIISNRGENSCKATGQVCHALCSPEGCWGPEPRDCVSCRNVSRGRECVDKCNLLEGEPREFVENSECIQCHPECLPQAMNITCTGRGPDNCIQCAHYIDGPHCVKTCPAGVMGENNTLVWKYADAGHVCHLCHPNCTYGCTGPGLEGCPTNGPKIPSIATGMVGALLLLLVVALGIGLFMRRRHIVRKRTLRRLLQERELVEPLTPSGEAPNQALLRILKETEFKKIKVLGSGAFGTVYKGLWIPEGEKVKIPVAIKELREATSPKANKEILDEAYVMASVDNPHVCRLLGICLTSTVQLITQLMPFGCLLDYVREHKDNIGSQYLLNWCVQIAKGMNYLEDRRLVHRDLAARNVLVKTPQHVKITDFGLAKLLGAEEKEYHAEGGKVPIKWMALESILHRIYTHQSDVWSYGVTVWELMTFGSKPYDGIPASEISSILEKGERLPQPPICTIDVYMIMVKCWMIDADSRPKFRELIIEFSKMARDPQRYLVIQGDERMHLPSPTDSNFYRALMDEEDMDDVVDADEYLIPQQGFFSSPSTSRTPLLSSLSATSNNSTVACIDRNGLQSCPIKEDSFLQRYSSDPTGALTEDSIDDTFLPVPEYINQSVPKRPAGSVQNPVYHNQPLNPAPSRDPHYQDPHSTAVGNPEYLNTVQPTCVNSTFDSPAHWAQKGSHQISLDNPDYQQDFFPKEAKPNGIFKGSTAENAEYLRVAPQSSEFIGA

[4] = molecular target: T2, Aurora kinase C (Homo sapiens) (UniProt Q9UQB9); assay: Inhibition of human Aurora-C assessed as residual activity at 1 uM relative to control
T2 sequence (whole entry): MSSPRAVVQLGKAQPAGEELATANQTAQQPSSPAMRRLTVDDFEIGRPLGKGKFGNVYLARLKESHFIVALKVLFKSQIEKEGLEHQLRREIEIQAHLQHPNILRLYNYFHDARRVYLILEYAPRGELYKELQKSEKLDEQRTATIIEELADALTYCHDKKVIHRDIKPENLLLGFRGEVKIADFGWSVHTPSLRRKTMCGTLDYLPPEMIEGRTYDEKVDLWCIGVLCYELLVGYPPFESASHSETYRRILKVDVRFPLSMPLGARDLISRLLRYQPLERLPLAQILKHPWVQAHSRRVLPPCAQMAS

[5] = molecular target: Tyrosine-protein kinase Fyn (Homo sapiens) (UniProt P06241); assay: Inhibition of human FYN assessed as residual activity at 1 uM relative to control
Tyrosine-protein kinase Fyn (Homo sapiens), sequence (P06241 2-537 limits assumed): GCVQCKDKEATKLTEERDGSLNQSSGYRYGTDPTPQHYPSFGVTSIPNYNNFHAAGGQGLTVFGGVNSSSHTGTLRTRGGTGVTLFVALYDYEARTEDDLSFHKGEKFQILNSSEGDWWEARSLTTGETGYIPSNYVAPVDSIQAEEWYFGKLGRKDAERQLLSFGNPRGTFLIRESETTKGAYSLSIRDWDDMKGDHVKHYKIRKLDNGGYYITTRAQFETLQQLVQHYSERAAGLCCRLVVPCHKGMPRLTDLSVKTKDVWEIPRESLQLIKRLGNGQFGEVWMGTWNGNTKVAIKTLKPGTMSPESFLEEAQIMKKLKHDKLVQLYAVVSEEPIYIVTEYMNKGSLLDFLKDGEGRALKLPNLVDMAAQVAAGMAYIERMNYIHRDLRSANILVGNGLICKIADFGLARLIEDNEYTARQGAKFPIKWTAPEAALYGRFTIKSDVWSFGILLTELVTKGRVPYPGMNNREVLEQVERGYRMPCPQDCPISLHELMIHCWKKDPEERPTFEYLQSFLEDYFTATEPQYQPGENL

[6] = molecular target: T3, TGF-beta receptor type-1 (Homo sapiens) (UniProt P36897); assay: Inhibition of human TGFBR1 assessed as residual activity at 1 uM relative to control
T3 sequence (whole entry): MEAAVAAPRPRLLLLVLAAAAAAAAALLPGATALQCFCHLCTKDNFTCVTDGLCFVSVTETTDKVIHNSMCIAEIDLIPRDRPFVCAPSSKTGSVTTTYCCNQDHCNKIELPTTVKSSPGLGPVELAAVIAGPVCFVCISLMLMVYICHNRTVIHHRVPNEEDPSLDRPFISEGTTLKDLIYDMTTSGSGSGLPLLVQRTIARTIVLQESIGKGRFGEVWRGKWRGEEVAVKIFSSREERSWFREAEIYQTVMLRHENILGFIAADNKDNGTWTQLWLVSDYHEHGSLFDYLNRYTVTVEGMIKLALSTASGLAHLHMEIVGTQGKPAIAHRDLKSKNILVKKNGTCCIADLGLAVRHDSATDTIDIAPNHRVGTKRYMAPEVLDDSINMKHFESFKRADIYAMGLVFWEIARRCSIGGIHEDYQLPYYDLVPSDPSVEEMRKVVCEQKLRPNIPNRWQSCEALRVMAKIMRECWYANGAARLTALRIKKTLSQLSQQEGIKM

[7] = tested on: Proto-oncogene tyrosine-protein kinase receptor Ret (Homo sapiens), P07949 [V804L]; assay: Inhibition of human RET V804L mutant assessed as residual activity at 1 uM relative to control
Proto-oncogene tyrosine-protein kinase receptor Ret (Homo sapiens), P07949 [V804L], sequence (P07949 whole entry V804L): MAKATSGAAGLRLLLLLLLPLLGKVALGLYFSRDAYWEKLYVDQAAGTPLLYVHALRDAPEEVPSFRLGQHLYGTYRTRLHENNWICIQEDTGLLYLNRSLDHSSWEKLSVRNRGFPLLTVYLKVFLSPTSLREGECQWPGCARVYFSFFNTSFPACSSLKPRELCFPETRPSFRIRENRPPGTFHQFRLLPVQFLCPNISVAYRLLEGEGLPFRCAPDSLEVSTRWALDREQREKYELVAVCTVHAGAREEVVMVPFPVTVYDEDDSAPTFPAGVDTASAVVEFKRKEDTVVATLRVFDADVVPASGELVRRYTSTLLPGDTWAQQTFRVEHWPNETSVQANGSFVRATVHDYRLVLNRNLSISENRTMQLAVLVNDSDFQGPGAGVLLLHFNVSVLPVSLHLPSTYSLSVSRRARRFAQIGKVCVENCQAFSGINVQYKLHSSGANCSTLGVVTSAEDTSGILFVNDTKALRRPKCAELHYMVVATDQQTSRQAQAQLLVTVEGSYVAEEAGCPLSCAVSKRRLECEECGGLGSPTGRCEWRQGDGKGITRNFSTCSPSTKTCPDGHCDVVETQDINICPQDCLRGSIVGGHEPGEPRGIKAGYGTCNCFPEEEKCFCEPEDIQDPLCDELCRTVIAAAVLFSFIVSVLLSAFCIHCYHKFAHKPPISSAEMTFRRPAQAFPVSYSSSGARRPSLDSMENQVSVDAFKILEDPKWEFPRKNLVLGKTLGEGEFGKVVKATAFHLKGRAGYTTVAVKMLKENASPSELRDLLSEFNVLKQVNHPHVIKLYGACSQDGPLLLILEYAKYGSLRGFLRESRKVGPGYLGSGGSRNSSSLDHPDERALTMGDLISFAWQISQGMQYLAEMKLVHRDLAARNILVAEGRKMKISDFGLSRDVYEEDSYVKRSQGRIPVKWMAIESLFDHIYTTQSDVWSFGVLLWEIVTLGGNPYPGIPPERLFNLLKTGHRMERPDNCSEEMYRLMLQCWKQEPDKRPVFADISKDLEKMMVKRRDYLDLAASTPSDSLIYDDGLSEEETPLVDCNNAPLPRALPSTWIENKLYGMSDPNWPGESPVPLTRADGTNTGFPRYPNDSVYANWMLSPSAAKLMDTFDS

[8] = molecular target: T4, Serine/threonine-protein kinase Chk1 (Homo sapiens) (UniProt O14757); assay: Inhibition of human CHK1 assessed as residual activity at 1 uM relative to control
T4 sequence (whole entry): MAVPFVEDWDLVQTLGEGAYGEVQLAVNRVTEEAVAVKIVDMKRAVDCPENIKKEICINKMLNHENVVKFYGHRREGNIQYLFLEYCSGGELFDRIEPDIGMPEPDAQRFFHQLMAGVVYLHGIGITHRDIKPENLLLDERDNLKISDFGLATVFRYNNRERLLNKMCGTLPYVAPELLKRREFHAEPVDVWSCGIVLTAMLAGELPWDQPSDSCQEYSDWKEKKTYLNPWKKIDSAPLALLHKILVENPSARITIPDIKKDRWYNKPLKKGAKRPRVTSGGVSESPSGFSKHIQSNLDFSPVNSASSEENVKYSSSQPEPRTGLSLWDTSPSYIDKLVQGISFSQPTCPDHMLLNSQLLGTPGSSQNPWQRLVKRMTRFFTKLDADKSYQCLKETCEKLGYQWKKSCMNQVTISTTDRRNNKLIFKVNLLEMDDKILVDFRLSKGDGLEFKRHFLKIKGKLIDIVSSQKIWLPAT

Activity [1] [%] | Activity [2] [%] | Activity [3] [%] | Activity [4] [%] | Activity [5] [%] | Activity [6] [%] | Activity [7] [%] | Activity [8] [%] | SMILES
112 | 98 | 102 | 76 | 34 | 104 | 8 | 99 | COc1ccc(-c2nc3cc(-c4csc(C(=O)NCC(C)C)c4)cnc3[nH]2)cc1
104 | 93 | 89 | 77 | 33 | 85 | 5 | 90 | COc1ccc(-c2nc3cc(-c4csc(C(=O)NCCC(C)C)c4)cnc3[nH]2)cc1
104 | 91 | 97 | 76 | 67 | 111 | 13 | 103 | COc1ccc(-c2nc3cc(-c4csc(C(=O)NCC(C)(C)C)c4)cnc3[nH]2)cc1
